“Also recorded” adds a separate entry of the source.
Key:
[1] = tested on: retinal ECs of BMP9/10 Abs-treated Fucci2 animals; experiment: Endothelial cell cycle state in BMP9/10 Abs-treated Fucci2 reporter pups; type: in vivo, mouse; conditions: BMP9/10 Abs + CDK4/6i, P7 Fucci2
From the text: (§1) All animal protocols and procedures were approved by the University of Virginia Animal Care and Use Committee and complied with all ethical regulations. Cdh5Cre^ERT21Rha^43 and Alk1^flox/flox were gifted from Drs. Ralf Adams and Paul Oh, respectively. R26p-Fucci2 (Fucci2) (Accession #CDB0203T)^44 and C57bl/6 mice were purchased from Riken and Jax, respectively. Cdh5Cre^ERT2 mice were crossed with Alk1^flox/flox mice (6-8-week-old) to generate Alk1EC^iKO pups. Cre activity in Alk1EC^iKO was induced in pups at P3 via a single intraperitoneal (i.p.) injection of Tamoxifen (Tx; Sigma T5648, […] of 4 mg/ml, resuspended in 10% ethanol and 90% corn oil). Alk1^flox/flox littermates were used as controls. Alk1EC^iKO mice were crossed with Fucci2 mice to generate Alk1EC^iKO-Fucci2 pups.

[2] = tested on: Retinoblastoma protein (Rb); experiment: Western Blot of Rb Ser 807/811 phosphorylation in HUVECs; type: cell-based, human; conditions: 24 h
Method: FIG. 11B illustrates Western Blot analysis of Rb Ser 807/811 phosphorylation in response to Palbociclib (CDK4/6i) (24 h) in HUVECs.
Primary Human Umbilical Vein Endothelial Cells (HUVECs) were purchased from Lonza (C2519AS) and cultured in EGM™2-Bulletkit™ medium (CC-3156 & CC-4176, Lonza). For VEGF-A- or BMP9-induced signaling response in HUVECs, cells (70% confluent) were treated with Palbociclib (3 mg/ml, CDK4/6i) for 12 h in EGM-2 medium prior to starvation overnight in EMB-2 media (CC-3162 Lonza) supplemented with 0.1% FBS and Palbociclib (3 mg/ml). Cells were stimulated with either VEGF-A (25 ng/ml for 15 min) or BMP9 (1 ng/ml for 2 h) and harvested for Western Blot analysis.
Cells were lysed in RIPA buffer (Abcam, ab206996) and equal amounts of proteins were separated on 4-15% gradient Criterion precast gels (Bio-Rad 567-1084). Proteins were then transferred onto nitrocellulose membranes (Bio-Rad). Western Blots were developed with chemiluminescence HRP substrate (Radiance plus, Azure Biosystems AC2103) on a digital image analyzer, Azure Imager c300.

[3] = tested on: vascular malformations in Alk1EC^iKO pups; experiment: Retinal vasculature analysis in Alk1EC^iKO pups (HHT type 2 model); type: in vivo, mouse
From the text: FIG. 5A illustrates a timeline used for tamoxifen (Tx) injection and CDK4/6i treatment of Alk1EC^iKO pups. FIG. 5B illustrates representative images showing retinal vasculature labelled with IB4 from control, Alk1EC^iKO, and Alk1EC^iKO+CDK4/6i-treated P5 animals. Bar graphs showing (FIG. 5C) quantification of AV shunt number per retina, (FIG. 5D) vascular density, and (FIG. 5E) vascular progression. (N=8 to 10 retinas/group, at least 4 mice). Data are mean±SEM, One-way ANOVA, *p≤0.05, **p≤0.01). FIG. 5F illustrates a timeline used for Tx injection and CDK4/6i treatment of Alk1EC^iKO pups for blue latex dye perfusion experiments. FIG. 5G illustrates blue latex dye vascular perfusion in brains from control, Alk1EC^iKO, and Alk1EC^iKO+CDK4/6i-treated P7 animals. […] FIG. 5H illustrates the quantification of left middle cerebral artery (MCA) and basilar artery (BA) in control, Alk1EC^iKO, and Alk1EC^iKO+CDK4/6i-treated animals. FIG. 5I illustrates the quantification of the number of latex filled veins in control, Alk1EC^iKO, and Alk1EC^iKO+CDK4/6i-treated animals. (N=4 to 6 mice/group. Data are mean±SEM, one-way ANOVA with Holm-Šidàk's multiple comparison test, *p≤0.05, **p≤0.01, ***p<0.001). Scale bar (G): 4 mm.
About 50% of HHT patients harbor mutations in the Acvrl1 gene^1, which encodes for the ALK1 receptor. To validate the clinical relevance of the use of Palbociclib for the treatment of HHT, we crossed Cdh5Cre^ERT2 mice with Alk1^flox/flox mice (6-8-week-old) to generate an endothelial-specific inducible deletion of Alk1 (referred to as Alk1EC^iKO), which is an established preclinical mouse model of human HHT type 2^12,25. Neonatal Alk1EC^iKO pups received a single i.p. injection of tamoxifen at P3 to induce Alk1 gene deletion and were then treated with Palbociclib via oral gavage at P4, and their retinal vasculature was analyzed at P5 (FIG. 5A). […] Due to the relatively short survival time post-tamoxifen induction in Alk1EC^iKO mice (approximately 48 hours), our study is limited to a single Palbociclib injection, which represents a technical challenge in exploring additional treatments. […] Single Cell RNA sequencing analysis of Palbociclib effects on endothelial arteriovenous identity in Alk1EC^iKO mice.
With bulk RNAseq analysis, we further investigated the effects of Palbociclib on these pathways in vivo on P7 retinal ECs from control pups or those treated with anti-BMP9/10, with or without CDK4/6i, as outlined in FIG. 2A. […] We also investigated the potential role of FLT1, a decoy receptor for VEFG-A, in the mechanism of action of Palbociclib, by injecting i.p. FLT1 blocking antibodies in Alk1EC^iKO mice simultaneously with CDK4/6i treatment (FIG. 8G).
as §1

VEGF-A signaling = experiment: Western Blot of VEGF-A-induced signaling in HUVECs; type: cell-based, human; conditions: Palbociclib pre-treatment 24 h, 15-minute VEGF-A stimulation
Method: (§2) FIG. 8A illustrates Western Blot analysis of the phosphorylation of the indicated proteins in response to VEGF-A (1.5 nM) in control vs. CDK4/6i treated HUVECs. FIG. 8B illustrates Western Blot analysis of the phosphorylation of the indicated proteins in response to BMP9 (10 ng/ml) in control vs. CDK4/6i-treated HUVECs. FIG. 8C illustrates quantification of phosphorylation normalized to total protein levels. (N=5 independent experiments, Data are mean±SEM, Mann-Whitney U test: *p<0.05). […] FIG. 8E illustrates ENDOGLIN (green) and IB4 (white) staining of retinal flat-mounts from P5 Alk1^fl/fl, Alk1^fl/fl treated with CDK4/6i, Alk1EC^iKO, and Alk1EC^iKO treated with CDK4/6i animals (A: Artery; V: Vein). FIG. 8F illustrates quantification of fluorescence intensity of ENDOGLIN staining in (FIG. 8E) retinal venous vessels of the indicated animals (N=4 retinas per group. Data are mean±SEM, one-way ANOVA with Tukey's multiple comparison test: *p<0.05; ns p>0.05). FIG. 8G illustrates timeline used for Tx injection, and CDK4/6i and FLT1 blocking antibody treatment of Alk1EC^iKO pups. […]
Next, we treated HUVECs with Alk1 siRNA to silence Alk1 and test the VEGF-A-induced response, with or without Palbociclib treatment, using pAKT activation as a readout.

ENDOGLIN = ENDOGLIN expression in retinal venous ECs of Alk1EC^iKO mice; type: in vivo, mouse; conditions: both mRNA and protein levels
Method: as §2
Eyes from P7 pups were pre-fixed in 4% PFA for 20 min at room temperature (RT). […] Quantification of vascular progression, density, AVM numbers and vessel diameters in the retinal vasculature were performed with Image J software.

[4] = tamoxifen P3, Palbociclib P4, P5

## CC(=O)c1c(C)c2cnc(Nc3ccc(N4CCNCC4)cn3)nc2n(C2CCCC2)c1=O [Palbociclib, 6-acetyl-8-cyclopentyl-5-methyl-2-[5-(1-piperazinyl)pyridine-2-ylamino]pyrido[2,3-d]pyrimidin-7(8H)-one]
[1]
  EC cell cycle state (early G1, late G1, S/G2/M) in veins, arteries and capillaries: predominantly in late G1 state
  vascular malformations in retina of Fucci2 pups: vascular malformations were absent
[2]
  Rb phosphorylation: induced hypo-phosphorylation of the Retinoblastoma protein (Rb)
[3]; Alk1^iECKO mice, Palbociclib alone, vs untreated
  AV shunt number per retina (FLT1 experiment): developed less AV shunts
[3]; Alk1^iECKO mice, Palbociclib plus i.p. FLT1 blocking antibodies (1.6 mg/kg)
  AV shunt number per retina with FLT1 blocking antibodies: numerous AV shunts, comparable to untreated
[3]; [4]
  vascular density at the front of the retinal vascular plexi: prevented the formation of hyperdense and disorganized vascular networks
  vascular progression: normalized vascular progression
[3]; tamoxifen P3, Palbociclib oral gavage P4, retina at P5, vs untreated Alk1EC^iKO
  number of AVMs (AV shunts) per retina: significantly lower number of AVMs; also recorded: prevented the development of arterio-venous malformations
VEGF-A signaling
  pAKT activation in response to VEGF-A: significantly decreased
  pERK1/2 activation in response to VEGF-A: significantly decreased
ENDOGLIN
  expression of ENDOGLIN in venous ECs: promoted the expression of ENDOGLIN in venous ECs

— patent US20240285631A1, “METHODS OF TREATING VASCULAR MALFORMATIONS” (priority 2023, published 2024)
